# Data taken from US9067894B1, “Compound, composition, and method of activating GIRK potassium channel and use of same for treating conditions of interest” (Vanderbilt University, priority 2013, dated 2015).
# “Also recorded” adds a separate entry of the source. Where two headings read alike, the source gives them in different places.
# Experiments:
# [1] = target: T1, Adrenergic α1D (Homo sapiens, UniProt P25100); experiment: Radioligand displacement (Ricerca); format: binding
# T1 construct: Ricerca (contract assay)
# T1 sequence (P25100 whole entry): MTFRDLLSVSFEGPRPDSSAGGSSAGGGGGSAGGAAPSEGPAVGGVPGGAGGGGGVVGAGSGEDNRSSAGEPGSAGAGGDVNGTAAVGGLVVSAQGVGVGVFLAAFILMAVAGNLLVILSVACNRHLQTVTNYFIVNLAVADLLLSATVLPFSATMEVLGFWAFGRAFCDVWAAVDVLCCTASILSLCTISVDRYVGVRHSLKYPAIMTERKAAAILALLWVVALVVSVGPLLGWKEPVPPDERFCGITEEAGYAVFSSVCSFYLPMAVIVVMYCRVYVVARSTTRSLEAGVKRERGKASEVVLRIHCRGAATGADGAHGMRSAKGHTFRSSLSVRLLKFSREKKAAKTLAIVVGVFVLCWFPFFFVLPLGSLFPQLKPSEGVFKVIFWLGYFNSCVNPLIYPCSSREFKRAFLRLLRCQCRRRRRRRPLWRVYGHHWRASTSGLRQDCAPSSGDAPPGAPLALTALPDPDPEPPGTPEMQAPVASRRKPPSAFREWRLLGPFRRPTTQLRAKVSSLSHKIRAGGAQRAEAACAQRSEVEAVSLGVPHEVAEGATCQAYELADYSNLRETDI
# [2] = target: T2, Dopamine D3 (Homo sapiens, UniProt P35462); experiment: Radioligand displacement (Ricerca); format: binding
# T2 construct: Ricerca
# T2 sequence (P35462 whole entry): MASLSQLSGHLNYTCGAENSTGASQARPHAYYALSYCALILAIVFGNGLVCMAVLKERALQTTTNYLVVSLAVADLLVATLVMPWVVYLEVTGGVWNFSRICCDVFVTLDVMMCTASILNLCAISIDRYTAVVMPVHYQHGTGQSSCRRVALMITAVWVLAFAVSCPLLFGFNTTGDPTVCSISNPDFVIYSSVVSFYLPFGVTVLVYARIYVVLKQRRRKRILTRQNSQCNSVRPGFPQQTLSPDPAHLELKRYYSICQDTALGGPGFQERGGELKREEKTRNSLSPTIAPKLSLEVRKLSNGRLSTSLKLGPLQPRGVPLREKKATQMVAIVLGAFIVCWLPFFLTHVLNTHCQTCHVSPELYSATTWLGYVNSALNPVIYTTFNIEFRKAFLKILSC
# [3] = target: T3, Histamine H3 (Homo sapiens, UniProt Q9Y5N1); experiment: Radioligand displacement (Ricerca); format: binding
# T3 construct: Ricerca (contract laboratory that ran the panel)
# T3 sequence (Q9Y5N1 whole entry): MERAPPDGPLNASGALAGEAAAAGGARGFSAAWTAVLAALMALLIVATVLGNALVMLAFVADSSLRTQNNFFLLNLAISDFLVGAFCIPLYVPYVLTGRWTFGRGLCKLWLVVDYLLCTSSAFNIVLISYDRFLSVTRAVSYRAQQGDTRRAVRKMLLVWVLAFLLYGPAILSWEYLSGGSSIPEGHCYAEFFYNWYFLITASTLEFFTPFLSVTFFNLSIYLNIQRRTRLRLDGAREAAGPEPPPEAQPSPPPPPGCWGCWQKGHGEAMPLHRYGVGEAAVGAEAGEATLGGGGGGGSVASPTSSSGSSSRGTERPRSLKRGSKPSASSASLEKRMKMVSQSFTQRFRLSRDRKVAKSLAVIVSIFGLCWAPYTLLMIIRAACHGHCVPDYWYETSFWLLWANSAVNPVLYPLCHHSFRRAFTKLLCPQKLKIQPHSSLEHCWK
# [4] = Microsomal clearance, murine liver microsomes; format: in vitro ADME, mouse
# Method: DMPK Methods. […] After a 5 min preincubation, the reaction was initiated by addition of NADPH (1 mM). At selected time intervals (0, 3, 7, 15, 25, and 45 min), 50 μL aliquots were taken and subsequently placed into a 96-well plate containing 150 μL of cold acetonitrile with internal standard (50 ng/mL carbamazepine). Plates were then centrifuged at 3000 rcf (4° C.) for 10 min, and the supernatant was transferred to a separate 96-well plate and diluted 1:1 with water for LC/MS/MS analysis. […] Liquid Chromatography/Mass Spectrometry Analysis. In vitro experiments. VU0456810 was analyzed on a Thermo Electron TSQ Quantum Ultra triple quad mass spectrometer (San Jose, Calif.) via electrospray ionization (ESI) with two Themo Electron Accella pumps (San Jose, Calif.), and a Leap Technologies CTC PAL autosampler (Carrboro, N.C.). Analytes were separated by gradient elution on a dual column system with two Thermo Hypersil Gold (2.1×30 mm, 1.9 μm) columns (San Jose, Calif.) at 40° C. […] The total run time was 1.3 min and the HPLC flow rate was 0.8 mL/min. […] Compound optimization, data collection and processing were performed using Thermo Electron's QuickQuan software (v2.3) and Xcalibur (v2.0.7 SP1).
# [5] = In vivo pharmacokinetic study, IP in mice; conditions: mouse, intraperitoneal 10 mg/kg
# Method: In Vivo Pharmacokinetic Study. Compound(s) were formulated in 10% Tween80 in sterile water at the concentration of 3.33 mg/mL and administered IP to male C57 BL6 mice weighing 20 to 25 g (Harlan, Indianapolis, Ind.) at the dose of 10 mg/kg. The blood (cardiac puncture) and brain were collected at 0.5, 1, 3, and 6 hr. Animals were euthanized and decapitated, and the brains were removed, thoroughly washed in cold phosphate-buffered saline, and immediately frozen on dry ice. Plasma was separated by centrifugation (4000 rcf, 4° C.) and stored at −80° C. until analysis. On the day of analysis, frozen whole-[…] brains were weighed and diluted with 1:3 (w/w) parts of 70:30 isopropanol:water. The mixture was then subjected to mechanical homogenation employing a Mini-Beadbeater™ and 1.0 mm Zirconia/Silica Beads (BioSpec Products) followed by centrifugation. The sample extraction of plasma (20 μL) or brain homogenate (20 μL) was performed by a method based on protein precipitation using three volumes of ice-cold acetonitrile containing an internal standard (50 ng/mL carbamazepine). The samples were centrifuged (3000 rcf, 5 min) and supernatants transferred and diluted 1:1 (supernatant: water) into a new 96 well plate, which was then sealed in preparation for LC/MS/MS analysis.
# LC/MS/MS Bioanalysis of Samples from In Vivo Studies. In vivo samples were analyzed via electrospray ionization (ESI) on an AB Sciex QTrap 5500 (Foster City, Calif.) triple-quadrupole linear ion trap instrument that was coupled with Shimadzu LC-20AD pumps (Columbia, Md.) and a Leap Technologies CTC PAL auto-sampler (Carrboro, N.C.). Analytes were separated by gradient elution using a Fortis C18 2.1×50 mm, 3 μm column (Fortis Technologies Ltd, Cheshire, UK) at 40° C. HPLC mobile phase A was 0.1% formic acid in water (pH unadjusted), mobile phase B was 0.1% formic acid in acetonitrile (pH unadjusted). […] The total run time was 2.5 min and the HPLC flow rate was 0.5 mL/min. The source temperature was set at 500° C. and mass spectral analyses were performed using multiple reaction monitoring (MRM), with transitions specific for each compound utilizing a Turbo-Ionspray® source in positive ionization mode (5.0 kV spray voltage). The calibration curves were constructed, and linear response was obtained in the range of 0.5 to 5,000 ng/mL, by spiking known amounts of […] in blank brain homogenate or plasma. All data were analyzed using AB Sciex Analyst software v1.5.1. The final PK parameters were calculated by noncompartmental analysis using Phoenix (version 6.2) (Pharsight Inc., Mountain View, Calif.).
# [6] = target: T4, Serotonin 5-HT2B (Homo sapiens, UniProt P41595); experiment: Radioligand displacement (Ricerca); format: binding
# T4 construct: Ricerca (contract panel)
# T4 sequence (P41595 whole entry): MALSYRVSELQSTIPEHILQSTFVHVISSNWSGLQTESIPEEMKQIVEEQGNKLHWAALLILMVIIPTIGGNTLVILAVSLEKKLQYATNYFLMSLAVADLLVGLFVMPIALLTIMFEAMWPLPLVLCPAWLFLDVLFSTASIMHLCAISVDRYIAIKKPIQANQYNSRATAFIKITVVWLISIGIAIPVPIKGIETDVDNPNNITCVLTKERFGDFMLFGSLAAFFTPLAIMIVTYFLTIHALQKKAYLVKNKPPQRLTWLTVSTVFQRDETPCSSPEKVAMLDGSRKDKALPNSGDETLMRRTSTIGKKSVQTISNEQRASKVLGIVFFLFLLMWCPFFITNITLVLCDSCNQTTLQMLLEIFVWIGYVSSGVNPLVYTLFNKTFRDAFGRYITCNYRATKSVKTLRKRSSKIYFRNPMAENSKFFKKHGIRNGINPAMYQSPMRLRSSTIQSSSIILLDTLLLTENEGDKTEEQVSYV
# [7] = target: T5, Adrenergic α1A (Rattus norvegicus, UniProt P43140); experiment: Radioligand displacement (Ricerca); format: binding
# T5 construct: Ricerca (contract assay)
# T5 sequence (P43140 whole entry): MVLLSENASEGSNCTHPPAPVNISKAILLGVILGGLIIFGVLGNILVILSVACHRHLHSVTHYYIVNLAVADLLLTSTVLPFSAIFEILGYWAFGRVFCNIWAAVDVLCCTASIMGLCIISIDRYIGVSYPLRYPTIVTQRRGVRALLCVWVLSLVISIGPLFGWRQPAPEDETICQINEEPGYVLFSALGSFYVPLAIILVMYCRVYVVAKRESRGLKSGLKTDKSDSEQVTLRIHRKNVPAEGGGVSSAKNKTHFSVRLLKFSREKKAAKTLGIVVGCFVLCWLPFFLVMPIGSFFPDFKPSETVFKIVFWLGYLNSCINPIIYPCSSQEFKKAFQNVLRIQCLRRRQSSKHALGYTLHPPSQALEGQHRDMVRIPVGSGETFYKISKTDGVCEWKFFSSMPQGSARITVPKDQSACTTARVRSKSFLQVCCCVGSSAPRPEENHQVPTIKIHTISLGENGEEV
# [8] = target: T6, Estrogen ERα (Homo sapiens, UniProt P03372); experiment: Radioligand displacement (Ricerca); format: binding
# T6 construct: Ricerca
# T6 sequence (P03372 whole entry): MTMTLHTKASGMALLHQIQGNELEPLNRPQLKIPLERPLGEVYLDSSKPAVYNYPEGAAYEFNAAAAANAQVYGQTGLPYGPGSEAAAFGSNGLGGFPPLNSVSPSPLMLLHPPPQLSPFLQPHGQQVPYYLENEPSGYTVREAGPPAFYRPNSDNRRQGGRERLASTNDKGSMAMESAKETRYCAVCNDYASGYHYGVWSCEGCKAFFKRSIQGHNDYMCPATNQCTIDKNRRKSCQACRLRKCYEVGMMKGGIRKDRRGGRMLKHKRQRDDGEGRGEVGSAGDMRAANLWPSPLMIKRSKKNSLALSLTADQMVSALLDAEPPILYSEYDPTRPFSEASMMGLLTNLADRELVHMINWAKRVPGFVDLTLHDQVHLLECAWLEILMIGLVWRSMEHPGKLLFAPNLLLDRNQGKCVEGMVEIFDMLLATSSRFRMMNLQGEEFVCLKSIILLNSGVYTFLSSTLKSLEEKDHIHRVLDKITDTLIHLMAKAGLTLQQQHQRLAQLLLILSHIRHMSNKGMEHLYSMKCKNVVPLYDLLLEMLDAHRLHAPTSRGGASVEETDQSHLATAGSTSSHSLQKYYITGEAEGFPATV
# [9] = tested on: Glutamate (kainate); experiment: Radioligand displacement (Ricerca); format: binding, rat; conditions: 10 μM
# [10] = Solubility; format: physicochemical
# [11] = Maximal electroshock (MES) model of epilepsy; format: in vivo, mouse; conditions: mice, i.p.; VU0456810 60 mg/kg, sodium valproate 150 mg/kg; vs vehicle
# Method: MES stimulation was applied, 30 minutes after injection, through transauricular (ear-clip) electrodes from an electroshock apparatus, HSE Shock Stimulator Type 221, (Harvard Apparatus, Holliston, Mass.) using the following parameters: 100-mA fixed current, a 50-60-Hz pulse frequency, a 0.6-ms pulse width and a 0.3-s stimulus duration. Animals were restrained by hand when applying the electrodes and released at the moment of stimulation to permit observation of the seizure throughout its entire course. Upon completion of the electrical stimulus, the amount of time until death was recorded. […] In this modified MES test, the electrical stimulus that was applied was sufficient to induce seizures and death from maximal seizure in 100% of the control mice.
# In all cases, experiments were conducted in a blind manner with respect to the experimenters. Data were evaluated in Excel using one-tailed, unpaired Student's t-test, assuming populations with unequal variance.
smiles,measurement,setting,value
"Cc1cc(NC(=O)Nc2ccc(F)c(F)c2)n(-c2ccccc2)n1 [VU0456810, 1-(3,4-difluorophenyl)-3-(3-methyl-1-phenyl-1H-pyrazol-5-yl)urea]",inhibition at 10 µM,[1],-3%
same,inhibition at 10 µM,[2],2%
same,inhibition at 10 µM,[3],1%
same,rClHEP,[4],88 mL/min/kg
same,CLhep predicted at 1 μM,"[4]; mouse, pH 7.4",88 mL/min/kg
same,Kp at 0.5 h,"[5]; male, C57 BL6, brain/plasma, ip, 30 min after administration",0.2
same,concentration at 30 min,"[5]; male, C57 BL6, brain, 30 min after administration, read-out: Brain concentration",500 nM
same,half-life,"[5]; male, C57 BL6, plasma, ip",20 min
same,concentration at 30 min,"[5]; male, C57 BL6, plasma, 30 min after administration, read-out: Plasma concentration",2300 nM
same,Plasma concentration,[5]; 30 min after administration,2300 nM
same,concentration at 30 min,"[5]; 30 min after administration, read-out: Brain concentration",500 nM
same,inhibition at 10 µM,[6],< 50%
same,% Inhibition,[6]; 10 μM,46%
same,inhibition at 10 µM,[7],4%
same,inhibition at 10 µM,[8],1%
same,% Inhibition,[9],1%
same,solubility,[10],17.5 µM
same,latency of seizure onset,[11],robust increase; also recorded: highly significant delays in seizure onset
